The subject of this assay is MV4-11 cells. Put plainly: Cell proliferation assay MV4;11 (CellTiter-Glo, 72 hours). It is filed as cell-based. The settings on record: Homo sapiens; MV4;11 leukemia cell line, 72 hours; read-out: MV4; 11 IC50. The procedure, abridged:
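MV4-11 cells (MLL1-AF4 fusion) exposed 72 h at 37 °C to 8 compound concentrations, final 0.632–2000 nM. Viability by CellTiter-Glo luminescence as % of vehicle RLU; % max inhibition = 100 − viability at top concentration.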
(Cellular ATP, detected with luciferase, serves as a proxy for viable cell number.)

Each structure is given as a SMILES string. Some results are limits rather than exact numbers.

In the case of `CCN(C(=O)c1cc(F)ccc1Oc1cncnc1N1CC2(CCN(C[C@@H]3CC[C@@H](NS(=O)(=O)c4ccccn4)CO3)CC2)C1)C(C)C` [Example 58, N-ethyl-5-fluoro-N-isopropyl-2-((4-(7-(((2S,5R)-5-(pyridine-2-sulfonamido)tetrahydro-2H-pyran-2-yl)methyl)-2,7-diazaspiro[3.5]nonan-2-yl)pyrimidin-5-yl)oxy)benzamide], the IC50 was less than 100 nM.

On to `CCN(C(=O)c1cc(F)ccc1Oc1cncnc1N1CC2(CCN(C[C@@H]3CC[C@@H](NS(=O)(=O)c4ccccc4Cl)CO3)CC2)C1)C(C)C` [Example 59, 2-((4-(7-(((2S,5R)-5-((2-Chlorophenyl)sulfonamido)tetrahydro-2H-pyran-2-yl)methyl)-2,7-diazaspiro[3.5]nonan-2-yl)pyrimidin-5-yl)oxy)-N-ethyl-5-fluoro-N-isopropylbenzamide], for which the IC50 is less than 100 nM.

Take `CCN(C(=O)c1cc(F)ccc1Oc1cncnc1N1CC2(CCN(C[C@@H]3CC[C@@H](NS(=O)(=O)c4cccc(C)c4)CO3)CC2)C1)C(C)C` [Example 60, N-ethyl-5-fluoro-N-isopropyl-2-((4-(7-(((2S,5R)-5-((3-methylphenyl)sulfonamido)tetrahydro-2H-pyran-2-yl)methyl)-2,7-diazaspiro[3.5]nonan-2-yl)pyrimidin-5-yl)oxy)benzamide]: the IC50 was less than 100 nM.

Regarding `CCN(C(=O)c1cc(F)ccc1Oc1cncnc1N1CC2(CCN(C[C@@H]3CC[C@@H](NS(=O)(=O)c4ccc(Cl)cc4)CO3)CC2)C1)C(C)C` [Example 61, 2-((4-(7-(((2S,5R)-5-((4-Chlorophenyl)sulfonamido)tetrahydro-2H-pyran-2-yl)methyl)-2,7-diazaspiro[3.5]nonan-2-yl)pyrimidin-5-yl)oxy)-N-ethyl-5-fluoro-N-isopropylbenzamide], the IC50 is less than 100 nM.

Regarding `CCN(C(=O)c1cc(F)ccc1Oc1cncnc1N1CC2(CCN(C[C@@H]3CC[C@@H](NS(=O)(=O)c4ccc(OC)cc4)CO3)CC2)C1)C(C)C` [Example 62, N-Ethyl-5-fluoro-N-isopropyl-2-((4-(7-(((2S,5R)-5-((4-methoxyphenyl)sulfonamido)tetrahydro-2H-pyran-2-yl)methyl)-2,7-diazaspiro[3.5]nonan-2-yl)pyrimidin-5-yl)oxy)benzamide], the IC50 is less than 100 nM.

For the compound `CCN(C(=O)c1cc(F)ccc1Oc1cncnc1N1CC2(CCN(C[C@@H]3CC[C@@H](NS(=O)(=O)c4cccnc4)CO3)CC2)C1)C(C)C` [Example 63, N-Ethyl-5-fluoro-N-isopropyl-2-((4-(7-(((2S,5R)-5-(pyridine-3-sulfonamido)tetrahydro-2H-pyran-2-yl)methyl)-2,7-diazaspiro[3.5]nonan-2-yl)pyrimidin-5-yl)oxy)benzamide], the IC50 is less than 100 nM.

As to `CCN(C(=O)c1cc(F)ccc1Oc1cncnc1N1CC2(CCN(C[C@@H]3CC[C@@H](NS(=O)(=O)N4CCOCC4)CO3)CC2)C1)C(C)C` [Example 64, N-Ethyl-5-fluoro-N-isopropyl-2-((4-(7-(((2S,5R)-5-(morpholine-4-sulfonamido)tetrahydro-2H-pyran-2-yl)methyl)-2,7-diazaspiro[3.5]nonan-2-yl)pyrimidin-5-yl)oxy)benzamide], the IC50 was less than 100 nM.

For `CCN(C(=O)c1cc(F)ccc1Oc1cncnc1N1CC2(CCN(C[C@@H]3CC[C@@H](NS(=O)(=O)c4ccccc4OC)CO3)CC2)C1)C(C)C` [Example 65, N-Ethyl-5-fluoro-N-isopropyl-2-((4-(7-(((2S,5R)-5-((2-methoxyphenyl)sulfonamido)tetrahydro-2H-pyran-2-yl)methyl)-2,7-diazaspiro[3.5]nonan-2-yl)pyrimidin-5-yl)oxy)benzamide], the IC50 was less than 100 nM.

On to `CCN(C(=O)c1cc(F)ccc1Oc1cncnc1N1CC2(CCN(C[C@@H]3CC[C@@H](NS(=O)(=O)c4cccc(OC)c4)CO3)CC2)C1)C(C)C` [Example 66, N-Ethyl-5-fluoro-N-isopropyl-2-((4-(7-(((2S,5R)-5-((3-methoxyphenyl)sulfonamido)tetrahydro-2H-pyran-2-yl)methyl)-2,7-diazaspiro[3.5]nonan-2-yl)pyrimidin-5-yl)oxy)benzamide], for which the IC50 is less than 100 nM.
